The source of these data is ChEMBL document CHEMBL1201862, “PubChem BioAssay data set” (2004).

Test systems include TK-10; HL-60; HCT-15; OVCAR-5; UO-31; OVCAR-3; ACHN; SK-MEL-2; IGROV-1; UACC-62; SW-620; OVCAR-4; K562; A498; EKVX; NCI-H23; SR.
Holding throughout (assay): DTP human tumour cell line panel, 48 h

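96-well plates; 48 h exposure; 5 concentrations. Endpoints by linear interpolation between flanking doses. Not reached: highest tested concentration assigned. GI50 marks 50% less growth.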 Active and inactive are the calls of the source. Rule as the data show it: active = GI50 up to about 1.1 µM and inactive = higher.

In the case of `CCC12C=C(C(=O)OC)N3c4ccccc4C4CCN(CCC1)C2C43` (stereo not given), the GI50 (in general, the concentration at which growth is held to half of that of the control) is > 100 µM (inactive) in the assay on TK-10; 78.9 µM (inactive) in the assay on HL-60; 64.3 µM in the assay with HCT-15; 40.9 µM (inactive) with OVCAR-5; 77.3 µM (inactive) in the assay on UO-31; > 100 µM (inactive) with OVCAR-3. Moreover, the GI50 in the assay on ACHN is 62.5 µM (inactive); in the assay on SK-MEL-2, > 100 µM (inactive); in the assay on IGROV-1 it was > 100 µM (inactive); in the assay on UACC-62, > 100 µM (inactive); in the assay on SW-620 it was 59.7 µM (inactive); in the assay with OVCAR-4, 97.9 µM (inactive). Besides, the GI50 with K562 was 37.7 µM (inactive); in the assay with A498 it was 66.2 µM (inactive); in the assay on EKVX it was > 100 µM (inactive); with NCI-H23, 99.3 µM (inactive).

For the compound `Cc1ccc(S(=O)(=O)N/N=C2\C(=O)C3CC2C(Cl)C3Cl)cc1` (stereo not given), the GI50 in the assay on TK-10 is > 100 µM (inactive); in the assay with HL-60, > 100 µM (inactive); with HCT-15, more than 100 µM; in the assay with OVCAR-5 it was > 100 µM (inactive); in the assay with UO-31, > 100 µM (inactive); in the assay with OVCAR-3, > 100 µM (inactive). Also, the GI50 in the assay on ACHN, in the assay on IGROV-1, in the assay on UACC-62, in the assay with SW-620, in the assay on OVCAR-4 and in the assay on K562 was > 100 µM (inactive) each time. The GI50 with A498, in the assay on SR and in the assay with NCI-H23 was > 100 µM (inactive) in each case.

Turning to `C=C1CCC(OC(C)=O)C2(C)C(OC(C)=O)CC3OC3(C)C2C(OC(C)=O)C2C(C)C(=O)OC2C1Cl` (stereo not given), the GI50 was > 100 µM (inactive) in the assay on TK-10; > 100 µM (inactive) in the assay with HL-60; more than 100 µM in the assay with HCT-15; > 100 µM (inactive) with OVCAR-5; > 100 µM (inactive) in the assay on UO-31; > 100 µM (inactive) in the assay on OVCAR-3. Also, the GI50 in the assay on ACHN, in the assay with SK-MEL-2, in the assay on IGROV-1, in the assay with UACC-62, with SW-620 and with OVCAR-4 was > 100 µM (inactive) in each case. In addition, the GI50 in the assay on K562, in the assay with A498, in the assay with SR, in the assay with EKVX and in the assay with NCI-H23 was > 100 µM (inactive) throughout.

For the compound `CCc1ccccc1N1C(=O)C(=O)C(c2nc3ccccc3s2)C(=O)C1=O`, the GI50 is > 100 µM (inactive) in the assay on TK-10; 40.3 µM (inactive) with HL-60; more than 100 µM with HCT-15; > 100 µM (inactive) in the assay on OVCAR-5; > 100 µM (inactive) in the assay on UO-31; 80.4 µM (inactive) in the assay with OVCAR-3. Besides, the GI50 was > 100 µM (inactive) in the assay on ACHN; > 100 µM (inactive) with SK-MEL-2; > 100 µM (inactive) in the assay on IGROV-1; > 100 µM (inactive) in the assay on UACC-62; 83.8 µM (inactive) in the assay with SW-620; 79.8 µM (inactive) with OVCAR-4. Also, the GI50 in the assay on K562 was 44.3 µM (inactive); in the assay with SR, 55 µM (inactive); in the assay on EKVX, > 100 µM (inactive); in the assay on NCI-H23, 66.2 µM (inactive).

Turning to `O=C(CC1Sc2ccccc2NC1=O)Nc1ccc([N+](=O)[O-])cc1[N+](=O)[O-]` (stereo not given), the GI50 in the assay with TK-10 was 41.3 µM (inactive); in the assay with HL-60, 17.8 µM (inactive); in the assay on OVCAR-5, 29.2 µM (inactive); with UO-31, 12 µM (inactive); in the assay with OVCAR-3, 16.3 µM (inactive); in the assay with ACHN, 15.3 µM (inactive). For the same compound, the GI50 is 19.5 µM (inactive) in the assay with SK-MEL-2; 17.4 µM (inactive) in the assay with IGROV-1; 15.4 µM (inactive) in the assay on UACC-62; 18.4 µM (inactive) in the assay with SW-620; 17.2 µM (inactive) in the assay on OVCAR-4; 32.2 µM (inactive) in the assay with EKVX. The GI50 in the assay on NCI-H23 was 13.1 µM (inactive).

`Nc1cccc(C(=O)/C=C/c2ccccc2O)c1`: the GI50 is > 100 µM (inactive) with TK-10; 20.7 µM (inactive) in the assay on HL-60; more than 100 µM in the assay on HCT-15; > 100 µM (inactive) in the assay on OVCAR-5; > 100 µM (inactive) in the assay on UO-31; > 100 µM (inactive) in the assay on OVCAR-3. Further, the GI50 is > 100 µM (inactive) in the assay with ACHN; > 100 µM (inactive) with SK-MEL-2; > 100 µM (inactive) with IGROV-1; > 100 µM (inactive) in the assay on UACC-62; 12.2 µM (inactive) in the assay on SW-620; 32.9 µM (inactive) in the assay with K562. The GI50 in the assay on A498 is > 100 µM (inactive); in the assay with SR, 44.7 µM (inactive); in the assay with EKVX, > 100 µM (inactive); in the assay on NCI-H23, > 100 µM (inactive).

On to `C[C@]12CCC(=O)C(OC(=O)c3ccc([N+](=O)[O-])cc3)=C1CCC2=O`, for which the GI50 in the assay with TK-10 was > 100 µM (inactive); with HL-60, > 100 µM (inactive); with HCT-15 it was more than 100 µM; with OVCAR-5 it was > 100 µM (inactive); with OVCAR-3, > 100 µM (inactive); with ACHN, > 100 µM (inactive). Besides, the GI50 in the assay on IGROV-1, with UACC-62, in the assay with SW-620, with OVCAR-4, in the assay on A498 and with SR was > 100 µM (inactive) each time. Besides, the GI50 in the assay on EKVX is > 100 µM (inactive).

Regarding `C[S+]=c1sc2ccccc2s1`, the GI50 with TK-10 was > 100 µM (inactive); with HL-60, > 100 µM (inactive); in the assay on HCT-15, more than 100 µM; with OVCAR-5, > 100 µM (inactive); in the assay with UO-31, > 100 µM (inactive); in the assay with ACHN it was > 100 µM (inactive). The GI50 with SK-MEL-2, in the assay on IGROV-1, with UACC-62, with SW-620, in the assay on OVCAR-4 and in the assay on K562 was > 100 µM (inactive) throughout. The GI50 with A498 and with SR was > 100 µM (inactive) in each case.

As for `C#CC1(O)CCC2C3CCc4cc(Oc5nc(F)nc(-c6c7ccccc7c7n6CCS7)n5)ccc4C3CC[C@@]21C` (stereo not given in full), the GI50 with TK-10 is 27.2 µM (inactive); in the assay with HL-60, 19.8 µM (inactive); in the assay with HCT-15 it was 15.1 µM; with OVCAR-5, > 100 µM (inactive); with UO-31 it was 28.6 µM (inactive); with OVCAR-3 it was 17.9 µM (inactive). The GI50 in the assay on ACHN was 29.6 µM (inactive); with SK-MEL-2, 5.62 µM (inactive); with IGROV-1, 29.2 µM (inactive); in the assay with UACC-62, 21.1 µM (inactive); in the assay with SW-620, 32.6 µM (inactive); in the assay on OVCAR-4 it was 15.3 µM (inactive). The values for the GI50 with K562, with SR and in the assay with NCI-H23 were 21.3 µM (inactive), 5.79 µM (inactive) and 18.7 µM (inactive), respectively.

As to `N#CC(C#N)=c1ccc(=C2N3CCCC3CN2C23CC4CC(CC(C4)C2)C3)cc1` (stereo not given), the GI50 was 76.4 µM (inactive) with TK-10; > 100 µM (inactive) in the assay with HL-60; more than 100 µM with HCT-15; > 100 µM (inactive) in the assay with OVCAR-5; > 100 µM (inactive) in the assay on UO-31; > 100 µM (inactive) in the assay with OVCAR-3. Moreover, the GI50 in the assay with ACHN was > 100 µM (inactive); in the assay with SK-MEL-2, > 100 µM (inactive); in the assay on IGROV-1 it was > 100 µM (inactive); with UACC-62, 90.6 µM (inactive); in the assay on SW-620 it was > 100 µM (inactive); with K562 it was > 100 µM (inactive). The GI50 in the assay with SR, in the assay on EKVX and with NCI-H23 was > 100 µM (inactive) in each case.

As to `COC(=O)C1CC2CC(=NNC(N)=O)CC2C1` (stereo not given), the GI50 in the assay with TK-10 is > 100 µM (inactive); in the assay on HL-60, > 100 µM (inactive); in the assay on HCT-15, more than 100 µM; in the assay on OVCAR-5, > 100 µM (inactive); with UO-31, > 100 µM (inactive); in the assay with OVCAR-3, > 100 µM (inactive). Also, the GI50 in the assay on ACHN, in the assay with SK-MEL-2, with IGROV-1, with UACC-62, in the assay with SW-620 and in the assay with OVCAR-4 was > 100 µM (inactive) in each case. The GI50 in the assay on K562, in the assay with A498, in the assay with EKVX and in the assay on NCI-H23 was > 100 µM (inactive) each time.

Regarding `NC(=O)C(=O)Cc1nc2ccccc2s1`, the GI50 was > 100 µM (inactive) in the assay with TK-10; > 100 µM (inactive) with HL-60; more than 100 µM in the assay on HCT-15; > 100 µM (inactive) with OVCAR-5; > 100 µM (inactive) with UO-31; > 100 µM (inactive) in the assay with OVCAR-3. Besides, the GI50 with ACHN, in the assay on SK-MEL-2, in the assay with SW-620, in the assay with OVCAR-4, with K562 and in the assay on A498 was > 100 µM (inactive) throughout. Moreover, the GI50 in the assay with EKVX and in the assay on NCI-H23 was > 100 µM (inactive) in each case.

Turning to `Cc1nc2ccccn2c1/N=N/c1ccc(C(=O)NN)cc1`, the GI50 in the assay on TK-10 is 23 µM (inactive); with HL-60 it was 9.31 µM (inactive); in the assay with HCT-15, 54.2 µM; with OVCAR-5, 36.1 µM (inactive); in the assay on UO-31 it was 36.9 µM (inactive); in the assay with OVCAR-3, 45 µM (inactive). In addition, the GI50 was 36 µM (inactive) with ACHN; 21.7 µM (inactive) in the assay with IGROV-1; 80.2 µM (inactive) with UACC-62; 49.3 µM (inactive) in the assay on SW-620; > 100 µM (inactive) with OVCAR-4; 49.8 µM (inactive) in the assay on K562. Also, the GI50 is 27.7 µM (inactive) in the assay with A498, 36.5 µM (inactive) in the assay on EKVX and 28.9 µM (inactive) with NCI-H23.

As to `CN(C)C(=N)c1ccccc1`, the GI50 with TK-10, with HL-60, with OVCAR-5, in the assay with UO-31, with OVCAR-3 and in the assay with SK-MEL-2 was > 100 µM (inactive) in each case. Besides, the GI50 in the assay with SW-620, in the assay with OVCAR-4, with SR and in the assay on NCI-H23 was > 100 µM (inactive) each time.
